ChEMBL document CHEMBL4673369, “ent-Kaurane-Based Diterpenoids, Dimers, and Meroditerpenoids from Isodon xerophilus” (J Nat Prod, 2020)
Activity calls are given as the source filed them. The rule behind the calls is not given here.

Experiments:
RAW264.7 = test: Inhibition of LPS-induced NO production in mouse RAW264.7 cells incubated for 18 hrs by Griess reagent based assay; type: functional, cell-based; settings: RAW264.7, 18 h
Candida albicans = test: Antifungal activity against fluconazole resistant Candida albicans kzs01 assessed as inhibition of growth at 100 uM after 24 hrs; type: functional, organism-based
Staphylococcus aureus = test: Antibacterial activity against Staphylococcus aureus assessed as inhibition of growth at 100 uM after 24 hrs; type: functional, organism-based
[1] = Cytotoxicity against human multidrug-resistant A549/Taxol cells assessed as reduction in cell viability; type: functional, cell-based
MCF7 = test: Cytotoxicity against human MCF7 cells assessed as reduction in cell viability; type: functional, cell-based
SW480 = test: Cytotoxicity against human SW480 cells assessed as reduction in cell viability; type: functional, cell-based
A549 = test: Cytotoxicity against human A549 cells assessed as reduction in cell viability; type: functional, cell-based
SMMC-7721 = test: Cytotoxicity against human SMMC-7721 cells assessed as reduction in cell viability; type: functional, cell-based
HL-60 = test: Cytotoxicity against human HL-60 cells assessed as reduction in cell viability; type: functional, cell-based

Row | SMILES | IC50 (RAW264.7) | inhibition (Candida albicans) | inhibition (Staphylococcus aureus) | IC50 [1] | IC50 (MCF7) | IC50 (SW480) | IC50 (A549) | IC50 (SMMC-7721) | IC50 (HL-60)
1 | COC[C@@]1(C[C@H]2C(=O)[C@@]34[C@H]5OC6O[C@@]3(O)[C@@H](O)[C@@H]3C(C)(C)CCC[C@]63[C@@H]4[C@@H](OC(C)=O)C[C@@H]25)C(=O)[C@]23[C@H](O)[C@@]4(O)OC5O[C@H]2[C@H]1C[C@H](OC(C)=O)[C@H]3[C@@]51CCCC(C)(C)[C@@H]41 (stereo partly drawn) | 42.2 µM | inactive | inactive | > 10 µM | > 10 µM | > 10 µM | > 10 µM | > 10 µM | > 10 µM
2 | COC[C@H]1C(=O)[C@@]23[C@H]4OC5O[C@@]2(O)[C@@H](O)[C@@H]2C(C)(C)CCC[C@]52[C@@H]3[C@@H](OC(C)=O)C[C@@H]14 | 29.4 µM | inactive | inactive | > 10 µM | > 10 µM | > 10 µM | > 10 µM | > 10 µM | > 10 µM
3 | COC[C@@H]1C(=O)[C@]23[C@H](O)[C@H]1CC[C@H]2C12CCCC(C)(C)[C@H]1C(=O)[C@]3(O)[C@@H]2O | – | inactive | inactive | > 10 µM | > 10 µM | > 10 µM | > 10 µM | > 10 µM | > 10 µM
4 | CC(=O)O[C@H]1C[C@@H]2[C@@H]3OC4O[C@@]5(O)[C@@H](O)[C@@H]6C(C)(C)CCC[C@]46[C@H]1[C@]35C(=O)[C@]21CO1 | – | inactive | inactive | > 10 µM | > 10 µM | > 10 µM | > 10 µM | > 10 µM | > 10 µM
5 | COC[C@@]1(C[C@H]2C(=O)[C@@]34[C@H]5OC6O[C@@]3(O)[C@@H](O)[C@@H]3C(C)(C)CCC[C@]63[C@@H]4CC[C@@H]25)C(=O)[C@@]23[C@H]4OC5O[C@@]2(O)[C@@H](O)[C@@H]2C(C)(C)CCC[C@]52[C@@H]3[C@@H](OC(C)=O)C[C@H]41 | 11.1 µM | inactive | inactive | > 10 µM | > 10 µM | > 10 µM | > 10 µM | > 10 µM | > 10 µM
6 | CC(=O)O[C@H]1C[C@@H]2[C@@H]3OC4O[C@@]5(O)[C@@H](O)[C@@H]6C(C)(C)CCC[C@]46[C@H]1[C@]35C(=O)[C@]21CCC2=C(O1)[C@@]13[C@H]4OC5O[C@@]1(O)[C@@H](O)[C@@H]1C(C)(C)CCC[C@]51[C@@H]3CC[C@@H]24 | – | inactive | inactive | > 10 µM | > 10 µM | > 10 µM | > 10 µM | > 10 µM | > 10 µM
7 | COC(=O)CCCCCC/C=C(/C=O)C[C@H]1C(=O)[C@@]23[C@H]4OC5O[C@@]2(O)[C@@H](O)[C@@H]2C(C)(C)CCC[C@]52[C@@H]3[C@@H](OC(C)=O)C[C@@H]14 | – | inactive | inactive | > 10 µM | > 10 µM | > 10 µM | > 10 µM | > 10 µM | > 10 µM
8 | COC[C@@H]1C(=O)[C@@]23[C@H]4OC5O[C@@]2(O)[C@@H](O)[C@@H]2C(C)(C)CCC[C@]52[C@@H]3[C@@H](OC(C)=O)C[C@@H]14 | – | inactive | inactive | > 10 µM | > 10 µM | > 10 µM | > 10 µM | > 10 µM | > 10 µM
9 | CNC(=N)NCCC[C@H](N)C(=O)O [TILARGININE ACETATE] | 47.2 µM | – | – | – | – | – | – | – | –
